Assay results reported in US8507509B2, “Saturated and insaturated bi- or tricyclic aryloxyacetamine derivatives and their use as fungicides” (Syngenta Crop Protection LLC, priority 2007, dated 2013).

Experiments:
Plasmopara viticola = Plasmopara viticola (downy mildew of grapevine), grapevine leaf disk assay, preventive; type: in vivo; conditions: foliar, 168 h, 200 ppm, grapevine leaf disks, assessed seven days after inoculation, read-out: control of fungal infection, Plasmopara viticola
Phytophthora infestans = test: whole plant or invertebrate; type: in vivo; conditions: in Solanum lycopersicum, foliar, 96 h, read-out: control of fungal infection, Phytophthora infestans
[1] = tested on: Erysiphe graminis f.sp. tritici; test: Erysiphe graminis f.sp. tritici (wheat powdery mildew), wheat leaf segment assay, preventive; type: in vivo; conditions: Blumeria graminis, foliar, 96 h; 200 ppm; wheat leaf segments; assessed four days after inoculation; read-out: control of fungal infection, Etysiphe graminis f.sp. tritici
Septoria tritici = Septoria tritici (leaf blotch), liquid culture growth inhibition in nutrient broth; type: cell-based; conditions: Zymoseptoria tritici; 200 ppm; PDB broth, 24 C; inhibition of growth determined photometrically after 72 hrs; read-out: control of fungal infection, Septoria tritici
Pythium ultimum = Pythium ultimum (Damping off), liquid culture growth inhibition in potato dextrose broth; type: cell-based; conditions: Globisporangium ultimum; 20 ppm; potato dextrose broth, 24° C.; inhibition of growth determined photometrically after 48 hours; read-out: control of fungal infection, Pythium ultimum
Septoria nodorum = Septoria nodorum (wheat glume blotch), wheat leaf segment assay, preventive; type: in vivo; conditions: Parastagonospora nodorum, foliar, 96 h; 200 ppm; wheat leaf segments; assessed four days after inoculation; read-out: control of fungal infection, Septoria nodorum

C=CCON=CC(C)(C)NC(=O)C(CC)Oc1ccc2ncc(I)cc2c1 (stereo not drawn) [Compound No. 4, N-(2-Allyloxyimino-1,1-dimethyl-ethyl)-2-(3-iodo-quinolin-6-yloxy)-butyramide]
≥ 60%: pest or weed control at 200 ppm (Plasmopara viticola) | pest or weed control at 200 ppm (Phytophthora infestans) | pest or weed control at 200 ppm [1] | inhibition of growth at 200 ppm (Septoria tritici) | inhibition of growth at 20 ppm (Pythium ultimum)

CSC(Oc1ccc2ncc(Br)cc2c1)C(=O)NC(C)(C)C=NOc1ccccc1 (stereo not drawn) [Compound No. 8, 2-(3-Bromo-quinolin-6-yloxy)-N-(1,1-dimethyl-2-phenoxyimino-ethyl)-2-methylsulfanyl-acetamide]
≥ 60%: pest or weed control at 200 ppm (Plasmopara viticola) | pest or weed control at 200 ppm (Phytophthora infestans) | inhibition of growth at 200 ppm (Septoria tritici) | inhibition of growth at 20 ppm (Pythium ultimum)

CSC(Oc1ccc2ncc(Br)cc2c1)C(=O)NC(C)(C)C=NOC(C)(C)C (stereo not drawn) [Compound No. 12, 2-(3-Bromo-quinolin-6-yloxy)-N-(2-tert-butoxyimino-1,1-dimethyl-ethyl)-2-methylsulfanyl-acetamide]
≥ 60%: inhibition of growth at 200 ppm (Septoria tritici) | inhibition of growth at 20 ppm (Pythium ultimum)

CCCCON=CC(C)(C)NC(=O)C(Oc1ccc2ncc(Br)cc2c1)SC (stereo not drawn) [Compound No. 14, 2-(3-Bromo-quinolin-6-yloxy)-N-(2-butoxyimino-1,1-dimethyl-ethyl)-2-methylsulfanyl-acetamide]
≥ 60%: pest or weed control at 200 ppm (Plasmopara viticola) | pest or weed control at 200 ppm (Phytophthora infestans) | inhibition of growth at 20 ppm (Pythium ultimum)

CSC(Oc1ccc2ncc(Br)cc2c1)C(=O)NC(C)(C)C=NO (stereo not drawn) [Compound No. 19, 2-(3-Bromo-quinolin-6-yloxy)-N-(2-hydroxyimino-1,1-dimethyl-ethyl)-2-methylsulfanyl-acetamide]
≥ 60%: pest or weed control at 200 ppm (Plasmopara viticola) | pest or weed control at 200 ppm (Phytophthora infestans) | pest or weed control at 200 ppm [1] | inhibition of growth at 200 ppm (Septoria tritici) | inhibition of growth at 20 ppm (Pythium ultimum)

CON=CC(C)(C)NC(=O)C(Oc1cc(Br)c2ncc(Br)cc2c1)SC (stereo not drawn) [Compound No. 34, 2-(3,8-Dibromo-quinolin-6-yloxy)-N-(2-methoxyimino-1,1-dimethyl-ethyl)-2-methylsulfanyl-acetamide]
≥ 60%: pest or weed control at 200 ppm (Septoria nodorum) | inhibition of growth at 200 ppm (Septoria tritici)

CON=CC(C)(C)NC(=O)C(Oc1cc(Cl)c2ncc(Br)cc2c1)SC (stereo not drawn) [Compound No. 35, 2-(3-Bromo-8-chloro-quinolin-6-yloxy)-N-(2-methoxyimino-1,1-dimethyl-ethyl)-2-methylsulfanyl-acetamide]
≥ 60%: inhibition of growth at 200 ppm (Septoria tritici) | inhibition of growth at 20 ppm (Pythium ultimum)

C#Cc1cnc2ccc(OC(SC)C(=O)NC(C)(C)C=NOC)cc2c1 (stereo not drawn) [Compound No. 38, 2-(3-Ethynyl-quinolin-6-yloxy)-N-(2-methoxyimino-1,1-dimethyl-ethyl)-2-methylsulfanyl-acetamide]
≥ 60%: pest or weed control at 200 ppm (Plasmopara viticola) | pest or weed control at 200 ppm (Phytophthora infestans) | pest or weed control at 200 ppm [1] | pest or weed control at 200 ppm (Septoria nodorum) | inhibition of growth at 200 ppm (Septoria tritici)

CSC(Oc1cc(C)c2ncc(I)cc2c1)C(=O)NC(C)(C)CC=NO (stereo not drawn) [Compound No. 41, N-(3-Hydroxyimino-1,1-dimethyl-propyl)-2-(3-iodo-8-methyl-quinolin-6-yloxy)-2-methylsulfanylacetamide]
≥ 60%: pest or weed control at 200 ppm (Plasmopara viticola) | pest or weed control at 200 ppm (Phytophthora infestans) | pest or weed control at 200 ppm [1] | inhibition of growth at 200 ppm (Septoria tritici) | inhibition of growth at 20 ppm (Pythium ultimum)

CCON=CC(C)(C)NC(=O)C(Oc1cc(C)c2ncc(I)cc2c1)SC (stereo not drawn) [Compound No. 42, N-(2-Ethoxyimino-1,1-dimethyl-ethyl)-2-(3-iodo-8-methyl-quinolin-6-yloxy)-2-methylsulfanyl-acetamide]
≥ 60%: pest or weed control at 200 ppm (Plasmopara viticola) | pest or weed control at 200 ppm (Phytophthora infestans) | pest or weed control at 200 ppm (Septoria nodorum)

CON=CC(C)(C)NC(=O)C(Oc1cc(C)c2ncc(I)cc2c1)SC (stereo not drawn) [Compound No. 44, 2-(3-Iodo-8-methyl-quinolin-6-yloxy)-N-(2-methoxyimino-1,1-dimethyl-ethyl)-2-methylsulfanyl-acetamide]
≥ 60%: pest or weed control at 200 ppm (Plasmopara viticola) | pest or weed control at 200 ppm [1] | inhibition of growth at 200 ppm (Septoria tritici) | inhibition of growth at 20 ppm (Pythium ultimum)

CON=CCC(C)(C)NC(=O)C(Oc1ccc2ncc(I)cc2c1)SC (stereo not drawn) [Compound No. 46, 2-(3-Iodo-quinolin-6-yloxy)-N-(3-methoxyimino-1,1-dimethyl-propyl)-2-methylsulfanyl-acetamide]
≥ 60%: pest or weed control at 200 ppm (Plasmopara viticola) | pest or weed control at 200 ppm (Phytophthora infestans) | pest or weed control at 200 ppm [1] | pest or weed control at 200 ppm (Septoria nodorum) | inhibition of growth at 200 ppm (Septoria tritici)

CCON=CC(C)(C)NC(=O)C(Oc1ccc2ncc(I)cc2c1)SC (stereo not drawn) [Compound No. 51, N-(2-Ethoxyimino-1,1-dimethyl-ethyl)-2-(3-iodo-quinolin-6-yloxy)-2-methylsulfanyl-acetamide]
≥ 60%: pest or weed control at 200 ppm (Plasmopara viticola) | pest or weed control at 200 ppm [1] | inhibition of growth at 200 ppm (Septoria tritici) | inhibition of growth at 20 ppm (Pythium ultimum)

CON=CC(C)(C)NC(=O)C(OC)Oc1ccc2ncc(Br)cc2c1 (stereo not drawn) [Compound No. 70, 2-(3-Bromo-quinolin-6-yloxy)-2-methoxy-N-(2-methoxyimino-1,1-dimethyl-ethyl)-acetamide]
≥ 60%: pest or weed control at 200 ppm (Plasmopara viticola) | pest or weed control at 200 ppm (Phytophthora infestans) | pest or weed control at 200 ppm [1] | inhibition of growth at 200 ppm (Septoria tritici) | inhibition of growth at 20 ppm (Pythium ultimum)

CON=CC(C)(C)NC(=O)C(Cc1cc(C)c2ccsc2c1)SC (stereo not drawn) [Compound No. 82, N-(2-Methoxyimino-1,1-dimethyl-ethyl)-3-(4-methyl-benzo[b]thiophen-6-yl)-2-methylsulfanyl-propionamide]
≥ 60%: pest or weed control at 200 ppm (Plasmopara viticola) | inhibition of growth at 200 ppm (Septoria tritici) | inhibition of growth at 20 ppm (Pythium ultimum)

COCC(=O)ON=CCC(C)(C)NC(=O)C(Oc1cc(C)c2ncc(I)cc2c1)SC (stereo not drawn) [Compound No. 103, 2-(3-Iodo-8-methyl-quinolin-6-yloxy)-N-(3-methoxyacetoxyimino-1,1-dimethyl-propyl)-2-methylsulfanyl-acetamide]
≥ 60%: pest or weed control at 200 ppm (Plasmopara viticola) | pest or weed control at 200 ppm [1] | pest or weed control at 200 ppm (Septoria nodorum) | inhibition of growth at 200 ppm (Septoria tritici)

CON=C(Cc1ccsc1)C(C)(C)NC(=O)C(Oc1ccc2ncc(Br)cc2c1)SC (stereo not drawn) [Compound No. 124, 2-(3-Bromo-quinolin-6-yloxy)-N-{2-[(E or Z)-methoxyimino]-1,1-dimethyl-3-thiophen-3-yl-propyl}-2-methylsulfanyl-acetamide]
≥ 60%: pest or weed control at 200 ppm (Septoria nodorum) | inhibition of growth at 200 ppm (Septoria tritici)

CON=C(Cc1ccccn1)C(C)(C)NC(=O)C(Oc1ccc2ncc(Br)cc2c1)SC (stereo not drawn) [Compound No. 127, 2-(3-Bromo-quinolin-6-yloxy)-N-{2-[(E or Z)-methoxyimino]-1,1-dimethyl-3-pyridin-2-yl-propyl}-2-methylsulfanyl-acetamide]
≥ 60%: pest or weed control at 200 ppm (Plasmopara viticola) | inhibition of growth at 200 ppm (Septoria tritici) | inhibition of growth at 20 ppm (Pythium ultimum)

CCON=C(Cc1ccccn1)C(C)(C)NC(=O)C(Oc1ccc2ncc(Br)cc2c1)SC (stereo not drawn) [Compound No. 128, 2-(3-Bromo-quinolin-6-yloxy)-N-{2-[(E or Z)-ethoxyimino]-1,1-dimethyl-3-pyridin-2-yl-propyl}-2-methylsulfanyl-acetamide]
≥ 60%: inhibition of growth at 200 ppm (Septoria tritici) | inhibition of growth at 20 ppm (Pythium ultimum)

CSC(Oc1ccc2ncc(Br)cc2c1)C(=O)NC(C)(C)C=NOCC#N (stereo not drawn) [Compound No. 140, 2-(3-Bromo-quinolin-6-yloxy)-N-(2-cyanomethoxyimino-1,1-dimethyl-ethyl)-2-methylsulfanyl-acetamide]
≥ 60%: pest or weed control at 200 ppm (Plasmopara viticola) | pest or weed control at 200 ppm (Phytophthora infestans) | pest or weed control at 200 ppm [1] | inhibition of growth at 200 ppm (Septoria tritici) | inhibition of growth at 20 ppm (Pythium ultimum)

CSC(Oc1ccc2ncc(Br)cc2c1)C(=O)NC(C)(C)C=NOCC1CCCO1 (stereo not drawn) [Compound No. 143, 2-(3-Bromo-quinolin-6-yloxy)-N-[1,1-dimethyl-2-(tetrahydro-furan-2-ylmethoxyimino)-ethyl]-2-methylsulfanyl-acetamide]
≥ 60%: pest or weed control at 200 ppm (Plasmopara viticola) | pest or weed control at 200 ppm (Phytophthora infestans) | pest or weed control at 200 ppm [1] | inhibition of growth at 200 ppm (Septoria tritici) | inhibition of growth at 20 ppm (Pythium ultimum)

CCC(Oc1ccc2ncc(Br)cc2c1)C(=O)NC(C)(C)C=NO (stereo not drawn) [Compound No. 150, 2-(3-Bromo-quinolin-6-yloxy)-N-(2-hydroxyimino-1,1-dimethyl-ethyl)-butyramide]
≥ 60%: pest or weed control at 200 ppm (Phytophthora infestans) | inhibition of growth at 20 ppm (Pythium ultimum)

CCC(Oc1ccc2ncc(Br)cc2c1)C(=O)NC(C)(C)C=NOCCF (stereo not drawn) [Compound No. 151, 2-(3-Bromo-quinolin-6-yloxy)-N-[2-(2-fluoro-ethoxyimino)-1,1-dimethyl-ethyl]-butyramide]
≥ 60%: pest or weed control at 200 ppm (Plasmopara viticola) | pest or weed control at 200 ppm (Phytophthora infestans) | pest or weed control at 200 ppm [1] | inhibition of growth at 200 ppm (Septoria tritici) | inhibition of growth at 20 ppm (Pythium ultimum)

CCC(Oc1ccc2ncc(I)cc2c1)C(=O)NC(C)(C)C=NO (stereo not drawn) [Compound No. 152, N-(2-Hydroxyimino-1,1-dimethyl-ethyl)-2-(3-iodo-quinolin-6-yloxy)-butyramide]
≥ 60%: pest or weed control at 200 ppm (Plasmopara viticola) | pest or weed control at 200 ppm (Phytophthora infestans) | pest or weed control at 200 ppm [1] | inhibition of growth at 200 ppm (Septoria tritici) | inhibition of growth at 20 ppm (Pythium ultimum)
